Reference: patent publication US20240270692A1, “S(+) FORM OF 4-(2,4-DIFLUOROPHENYL)-2-(1H-INDOL-3-YL)-4-OXO-BUTANOIC ACID” (TOHOKU UNIVERSITY, priority 2021, published 2024)

Key:
[1] = In vivo administration test 2: oral administration, plasma concentrations; conditions: male cynomolgus monkeys, single dose 100 mg/kg
Procedure: Each enantiomer (S(+) form or R(−) form) of MA5 was dissolved in a mixed solution of physiological saline and 0.1 N sodium hydroxide (9:1), and filtered and sterilized by using a 0.22 μm filter to prepare a solution containing 2 mL/kg of each enantiomer of MA5. Next, the solution containing each enantiomer of MA5 was intravenously administered to each of three 4- to 5-year-old male cynomolgus monkeys at a single dose of 1 mg/kg. As a control, a solution containing no enantiomer of MA5 was also administered in the same manner. […] The analysis conditions for LC-MS/MS are as follows.
As an ionization unit, an apparatus in which NANOSPACESI-2 (manufactured by OSAKA SODA CO., LTD.) as a high-performance liquid chromatograph was connected to a triple quadrupole mass spectrometer (TSQ Quantum Ultra, manufactured by Thermo Fisher Scientific Inc.) equipped with an ESI probe was used. The S(+) form of MA5 (S-(+)-MA5) and the R(−) form of MA5 (R-(−)-MA5), which are substances to be analyzed, were subjected to quantitative analysis by the internal standard method using their respective stable isotopes S-(+)-MA5-d6 and R-(−)-MA5-d6. […]
The MS conditions were detected in negative ion mode, a spray voltage set to 2.5 kV, a vaporizer temperature set to 250° C., and an ion transfer tube temperature set to 250° C. […] Waveform analysis and quantitative calculation by the internal standard method were carried out by using Xcalibur (manufactured by Thermo Fisher Scientific Inc.).
In “3. […] Specifically, according to the method described in “3-1 Method” above, a solution containing each enantiomer (S(+) form or R(−) form) of MA5 was orally administered to male cynomolgus monkeys at a single dose of 100 mg/kg, the concentration of each enantiomer of MA5 and the concentration of a reduced metabolite of each enantiomer of MA5 (the compound represented by formula (B) [that is, Red-MA5]) in plasma were measured.

[2] = Physical properties: solubility in solvents; assay type: physicochemical
[3] = Physical properties: coloration and degradation of dissolution solutions; assay type: physicochemical

Row | solubility ([2]; in a 50% acetonitrile aqueous solution) | solubility ([2]; in a 50% methanol aqueous solution) | solubility ([2]; in acetone, acetonitrile, ethyl acetate, chloroform, dichloromethane, methanol, ethanol, and isopropanol) | degradation product on silica gel TLC plate ([3]; dissolution solution developed immediately) | degradation product on silica gel TLC plate ([3]; dissolution solution spotted and developed after some time) | coloration of dissolution solution ([3]; ethanol, isopropanol, acetone, acetonitrile, ethyl acetate, 50% acetonitrile aqueous solution, or 0.1% formic acid-containing acetonitrile solution, refrigerated for about a week) | degradation product on silica gel TLC plate ([3]; ethyl acetate dissolution solution) | stability under a light, acid, or alkali condition ([3]; light, acid, or alkali condition) | coloration of dissolution solution ([3]; methanol, dichloromethane, chloroform, 50% methanol aqueous solution, or 0.1% formic acid-containing methanol solution, refrigerated for about a week) | coloration of dissolution solution ([3]; mixed solvent of an alcohol (methanol, ethanol, or isopropanol) and chloroform, the day after preparation) | SMILES | concentration in plasma after oral administration [1] | reduced metabolite (Red-MA5) in plasma [1] | degradation product on silica gel TLC plate ([3]; alcohol-chloroform dissolution solution)
1 | slightly soluble | sparingly soluble | easily soluble | no degradation product was generated | a degradation product appeared | does not become colored | not easily generated | undergoes coloration and degradation | colored pale yellow | colored yellow | O=C(C[C@H](C(=O)O)c1c[nH]c2ccccc12)c1ccc(F)cc1F [S(+) form of MA5, 4-(2,4-difluorophenyl)-2-(1H-indol-3-yl)-4-oxo-butanoic acid] | higher than that of the R(−) form of MA5 in plasma | almost no reduced metabolite was detected | a large amount of a degradation product was generated
2 | – | – | – | – | – | – | – | – | – | – | O=C(C[C@@H](C(=O)O)c1c[nH]c2ccccc12)c1ccc(F)cc1F [R(−) form of MA5, 4-(2,4-difluorophenyl)-2-(1H-indol-3-yl)-4-oxo-butanoic acid] | – | detected | –
